Data: patent US6534447B1, “Herbicidal pyridine compounds” (BASF Aktiengesellschaft, priority 1999, dated 2003)

What was measured:
Format in all cases: in vivo
[1] = tested on: Abutilon theophrasti (ABUTH, velvetleaf); assay: Pre-emergence herbicidal evaluation; settings: 3 weeks after treatment
How it was run: (§1)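 Seeds mixed with potting soil and sown on about one inch of soil per pot, then sprayed with aqueous acetone solution of test compound at the equivalent of about 0.025 to 0.4 kg per hectare. Pots kept under standard greenhouse care and visually rated from 3 weeks after treatment.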

[2] = tested on: Alopecurus myosuroides (ALOMY, black grass); assay: Pre-emergence herbicidal evaluation; settings: 3 weeks after treatment
How it was run: as §1

[3] = tested on: Echinochloa grus galli (ECHCG, barnyard grass); assay: Pre-emergence herbicidal evaluation; settings: 3 weeks after treatment
How it was run: as §1

[4] = tested on: Galium aparine (GALAP, cleaver); assay: Pre-emergence herbicidal evaluation; settings: 3 weeks after treatment
How it was run: as §1

[5] = tested on: Ipomoea hederacea (IPOHE, morning glory); assay: Pre-emergence herbicidal evaluation; settings: 3 weeks after treatment
How it was run: as §1

[6] = tested on: Matricaria inodora (MATIN, mayweed); assay: Pre-emergence herbicidal evaluation; settings: 3 weeks after treatment
How it was run: as §1

[7] = tested on: Setaria viridis (SETVI, green foxtail); assay: Pre-emergence herbicidal evaluation; settings: 3 weeks after treatment
How it was run: as §1

[8] = tested on: Stellaria media (STEME, chickweed); assay: Pre-emergence herbicidal evaluation; settings: 3 weeks after treatment
How it was run: as §1

[9] = tested on: Glycine max (GLXMA, soyabeans); assay: Pre-emergence herbicidal evaluation (crop); settings: 3 weeks after treatment
How it was run: as §1

[10] = tested on: Triticum aestivum (TRZAW, winter wheat); assay: Pre-emergence herbicidal evaluation (crop); settings: 3 weeks after treatment
How it was run: as §1

Zea mays (ZEAMX, maize) = assay: Pre-emergence herbicidal evaluation (crop); settings: 3 weeks after treatment
How it was run: as §1

[11] = tested on: Abutilon theophrasti (ABUTH, velvetleaf); assay: Post-emergence herbicidal evaluation; settings: 3 weeks after treatment
How it was run: (§2)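 Acetone solutions of test compound were diluted with water and sprayed onto plants at rates equivalent to about 0.025 to 0.4 kg per hectare per pot. Plants were then kept on greenhouse benches under conventional care and rated from 3 weeks after treatment on a 0 (as untreated control) to 9 (death) scale.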

[12] = tested on: Alopecurus myosuroides (ALOMY, black grass); assay: Post-emergence herbicidal evaluation; settings: 3 weeks after treatment
How it was run: as §2

[13] = tested on: Dolium multiflorum (LOLMU, ryegrass); assay: Post-emergence herbicidal evaluation; settings: rate 0.100 kg/ha, 3 weeks after treatment
How it was run: as §2

[14] = tested on: Echinochloa grus galli (ECHCG, barnyard grass); assay: Post-emergence herbicidal evaluation; settings: 3 weeks after treatment
How it was run: as §2

[15] = tested on: Galium aparine (GALAP, cleaver); assay: Post-emergence herbicidal evaluation; settings: 3 weeks after treatment
How it was run: as §2

[16] = tested on: Ipomoea hederacea (IPOHE, morning glory); assay: Post-emergence herbicidal evaluation; settings: 3 weeks after treatment
How it was run: as §2

[17] = tested on: Matricaria inodora (MATIN, mayweed); assay: Post-emergence herbicidal evaluation; settings: 3 weeks after treatment
How it was run: as §2

[18] = tested on: Setaria viridis (SETVI, green foxtail); assay: Post-emergence herbicidal evaluation; settings: 3 weeks after treatment
How it was run: as §2

[19] = tested on: Stellaria media (STEME, chickweed); assay: Post-emergence herbicidal evaluation; settings: 3 weeks after treatment
How it was run: as §2

eight weed species = assay: Pre-emergence herbicidal evaluation, overall weed control; settings: crop selective dose of 0.1 kg/ha
Description: The pre-emergence herbicidal activity of the compounds of the present invention is exemplified by the following test in which the seeds of a variety of monocotyledonous and dicotyledonous plants are seperately mixed with potting soil and planted on top of approximately one inch of soil in separate post. After planting, the pots are sprayed with the selected aqueous acetone solution. containing test compound in sufficient quantity to provide the equivalent of about 0.025 to 0.4 kg per hectare of test compound per pot. The treated pots are then placed on greenhouse benches, watered and cared for in accordance with conventional greenhouse procedures. From 3 weeks after treatment, the tests are terminated and each pot is examined and rated according to the rating system set forth below.
Thus, there is evidence for the good potential of the compounds of the invention for excellent cross spectrum control of both grasses and broadleaf weeds in key crops.

weeds = assay: Post-emergence herbicidal evaluation, overall weed control; settings: down to the lowest dose of 0.025 kg/ha
Protocol: These acetone solutions are diluted with water and the resulting formulations applied at dosage levels equivalent of about 0.025 to 0.4 kg per hectare of test compound per pot. After spraying the plants are placed on greenhouse benches and are cared for in the usual manner, commensurate with conventional greenhouse practices. From 3 weeks after treatment, the seedling plants are examined and rated according to the rating system provided above. A rating 0 indicates growth as untreated control, a rating 9 indicates death.

Cc1cc(OCCCSC(F)(F)F)nc(Oc2ccnc(C(F)(F)F)c2)c1 [Example 53]
7 (7 - Good herbicidal effect): ECHCG rating ([3]; rate 0.025 kg/ha)
high levels of activity: activity against weeds (in words) (weeds)
2 (2 - Slight effect): TRZAW rating ([10]; rate 0.100 kg/ha) | ZEAMX rating (Zea mays (ZEAMX, maize); rate 0.025 kg/ha)
9 (9 - Complete kill): ABUTH rating ([1]; rate 0.025 kg/ha) | ABUTH rating ([1]; rate 0.100 kg/ha) | ABUTH rating ([1]; rate 0.400 kg/ha) | ECHCG rating ([3]; rate 0.400 kg/ha) | IPOHE rating ([5]; rate 0.400 kg/ha) | MATIN rating ([6]; rate 0.400 kg/ha) | STEME rating ([8]; rate 0.025 kg/ha) | STEME rating ([8]; rate 0.100 kg/ha) | STEME rating ([8]; rate 0.400 kg/ha) | ABUTH rating ([11]; rate 0.100 kg/ha) | ABUTH rating ([11]; rate 0.400 kg/ha) | ALOMY rating ([12]; rate 0.400 kg/ha) | ECHCG rating ([14]; rate 0.025 kg/ha) | ECHCG rating ([14]; rate 0.100 kg/ha) | ECHCG rating ([14]; rate 0.400 kg/ha) | GALAP rating ([15]; rate 0.100 kg/ha) | GALAP rating ([15]; rate 0.400 kg/ha) | IPOHE rating ([16]; rate 0.025 kg/ha) | IPOHE rating ([16]; rate 0.100 kg/ha) | IPOHE rating ([16]; rate 0.400 kg/ha) | SETVI rating ([18]; rate 0.025 kg/ha) | SETVI rating ([18]; rate 0.100 kg/ha) | SETVI rating ([18]; rate 0.400 kg/ha) | STEME rating ([19]; rate 0.100 kg/ha) | STEME rating ([19]; rate 0.400 kg/ha)
4 (4 - Injury): GALAP rating ([4]; rate 0.025 kg/ha) | GLXMA rating ([9]; rate 0.025 kg/ha) | GLXMA rating ([9]; rate 0.100 kg/ha) | TRZAW rating ([10]; rate 0.400 kg/ha) | ZEAMX rating (Zea mays (ZEAMX, maize); rate 0.100 kg/ha) | ZEAMX rating (Zea mays (ZEAMX, maize); rate 0.400 kg/ha)
6 (6 - Herbicidal effect): GLXMA rating ([9]; rate 0.400 kg/ha) | ALOMY rating ([12]; rate 0.025 kg/ha) | GALAP rating ([15]; rate 0.025 kg/ha) | MATIN rating ([17]; rate 0.025 kg/ha)
1 (1 - Trace effect): TRZAW rating ([10]; rate 0.025 kg/ha)
complete control: weed control (in words) (eight weed species)
8 (8 - Approaching complete kill): ALOMY rating ([2]; rate 0.025 kg/ha) | ALOMY rating ([2]; rate 0.100 kg/ha) | ALOMY rating ([2]; rate 0.400 kg/ha) | ECHCG rating ([3]; rate 0.100 kg/ha) | GALAP rating ([4]; rate 0.100 kg/ha) | GALAP rating ([4]; rate 0.400 kg/ha) | IPOHE rating ([5]; rate 0.025 kg/ha) | IPOHE rating ([5]; rate 0.100 kg/ha) | MATIN rating ([6]; rate 0.025 kg/ha) | MATIN rating ([6]; rate 0.100 kg/ha) | SETVI rating ([7]; rate 0.025 kg/ha) | SETVI rating ([7]; rate 0.100 kg/ha) | SETVI rating ([7]; rate 0.400 kg/ha) | ABUTH rating ([11]; rate 0.025 kg/ha) | ALOMY rating ([12]; rate 0.100 kg/ha) | LOLMU rating [13] | MATIN rating ([17]; rate 0.100 kg/ha) | MATIN rating ([17]; rate 0.400 kg/ha) | STEME rating ([19]; rate 0.025 kg/ha)
